Twelve compounds from US20110046191A1, “COMBINATION OF A MUSCARINIC RECEPTOR ANTAGONIST AND A BETA-2-ADRENOCEPTOR AGONIST” (ARGENTA DISCOVERY LTD., priority 2007, published 2011) can be followed below.

pKi: −log10 of the molar value. Like-named read-outs stand apart in the source and are kept apart here.

Series [1] deals with isolated guinea-pig tracheal rings precontracted with methacholine. In words: Isolated tracheal rings from guinea-pig preconstricted with methacholine. The series is classed as cell-based. The settings on record: for inhibition at 0.001 µM: Cavia porcellus, read-out: % inhibition of 1 μM Methacholine induced tone; for % inhibition of 1 μM Methacholine induced tone: Formoterol 1 nM, Compound A or B 10 nM. How it is done: Evaluation of Compound Activity on Isolated Tracheal Rings from Guinea-Pig Preconstricted with Methacholine. […] Male albino Dunkin Hartley guinea-pigs (300-350 g) were killed by cervical dislocation and the trachea excised. Adherent connective tissue was removed and the trachea cut into ring segments (2-3 mm wide). These were suspended in 10 mL organ baths containing a modified Krebs solution composition (mM): NaCl 117.56, KCl 5.36, NaH2PO4 1.15, MgSO4 1.18, glucose 11.10, NaHCO3 25.00 and CaCl2 2.55. […] The tracheal rings were suspended between two stainless steel hooks, one attached to an isometric force transducer and the other to a stationary support in the organ bath. Changes in isometric force were recorded. Acetyl-β-methylcholine chloride (Methacholine), Indomethacin, Corticosterone-21-acetate, Phentolamine hydrochloride, Ascorbic acid, CGP20712A methanesulphate were obtained from the Sigma Chemical Company. […] At the beginning of each experiment a force of 1.0 g·wt. was applied to the tissues and this was reinstated over a 30 min equilibration period until it remained steady. […] Tissues were washed by exchanging the bathing Krebs solution three times. […] Data were collected using the ADInstruments Chart5 for windows software, the tension generated was measured before addition of methacholine and after its response had reached plateau. […] All responses were expressed as percentage inhibition of the methacholine-induced contraction. The results are depicted in FIG. 6 and Table 2, wherein compound A is (MA2). […] Tissues were washed by exchanging the bathing Krebs solution three times. […] Data were collected using the ADInstruments Chart5 for windows software, the tension generated was measured before addition of methacholine and after its response had reached plateau. […] All responses were expressed as percentage inhibition of the methacholine-induced contraction. The results are depicted in FIG. 7 and Table 3, wherein compound B is (MA11).

In series [2] the target is T1, human muscarinic receptors (M3) (Homo sapiens, UniProt P20309).
T1 construct: purchased
T1 sequence (P20309 whole entry): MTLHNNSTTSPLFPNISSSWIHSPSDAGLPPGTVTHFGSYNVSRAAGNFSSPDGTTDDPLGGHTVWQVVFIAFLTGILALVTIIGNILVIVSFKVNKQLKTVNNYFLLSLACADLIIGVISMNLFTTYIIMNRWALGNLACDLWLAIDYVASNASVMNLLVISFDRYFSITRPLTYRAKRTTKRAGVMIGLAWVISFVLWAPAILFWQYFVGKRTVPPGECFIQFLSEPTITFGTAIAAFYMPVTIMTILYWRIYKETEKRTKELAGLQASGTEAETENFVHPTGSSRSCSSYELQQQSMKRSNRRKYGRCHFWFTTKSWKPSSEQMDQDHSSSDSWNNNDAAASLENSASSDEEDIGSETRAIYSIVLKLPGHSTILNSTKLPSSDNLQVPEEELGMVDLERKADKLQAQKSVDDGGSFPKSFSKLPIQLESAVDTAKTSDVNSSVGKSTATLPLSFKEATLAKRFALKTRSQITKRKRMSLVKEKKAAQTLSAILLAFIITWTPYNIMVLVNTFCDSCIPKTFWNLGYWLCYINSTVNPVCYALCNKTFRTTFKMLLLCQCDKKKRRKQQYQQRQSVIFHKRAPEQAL
As to the kind of experiment: Muscarinic Receptor Radioligand Binding Assay ([3H]-NMS). Particulars: membranes expressing human M3. How it is done: The inhibitory effects of compounds of the muscarinic antagonists were determined by a Muscarinic Receptor Radioligand Binding Assay.
Radioligand binding studies utilising [^3H]-N-methyl scopolamine ([^3H]-NMS) and commercially available cell membranes expressing the human muscarinic receptors (M2 or M3) were used to assess the affinity of muscarinic antagonists for M2 and M3 receptors. Membranes in TRIS buffer were incubated in 96-well plates with [^3H]-NMS and M3 antagonist at various concentrations for 3 hours. Membranes and bound radioligand were then harvested by filtration and allowed to dry overnight. Scintillation fluid was then added and the bound radioligand counted using a Canberra Packard Topcount scintillation counter

A short description of series [3]: Gravimetric vapour sorption (GVS). The series is classed as physicochemical. Particulars: at 80% RH, ambient temperature. How it is done: GVS profiles were measured using a Dynamic Vapour Sorption DVS-1 instrument. The solid sample ca. 1-5 mg was placed into a glass vessel and the weight of the sample was recorded during a dual cycle step method (40 to 90 to 0 to 90 to 0% relative humidity (RH), in steps of 10% RH). GVS profiles were recorded at ambient temperature.

For series [4], the system named is Methacholine-induced bronchoconstriction in the guinea pig. In words: Lung function in anaesthetised guinea pigs: methacholine-induced bronchoconstriction. The format is in vivo. The settings on record: after 5 μg/kg methacholine i.v. As to the method:
Evaluation of Lung Function in Anaesthetised Guinea Pigs.
Male Dunkin-Hartley guinea pigs (300-600 g) were weighed and dosed with vehicle (0.05M phosphate, 0.1% Tween 80, 0.6% saline, pH 6) or compound via the intratracheal route under recoverable gaseous anaesthesia (5% halothane in oxygen). Animals were dosed with compound or vehicle two hours prior to the administration of methacholine. Guinea pigs were anaesthetised with pentobarbitone (1 mL/kg of 60 mg/mL solution i.p.) approximately 30 minutes prior to the first bronchoconstrictor administration. The trachea was cannulated and the animal ventilated using a constant volume respiratory pump (Harvard Rodent Ventilator model 683) at a rate of 60 breath/min and a tidal volume of 5 mL/kg. A jugular vein was cannulated for the administration of methacholine or maintenance anaesthetic (0.1 mL of pentobarbitone solution, 60 mg/mL, as required).
The animals were transferred to a Flexivent System (SCIREQ, Montreal, Canada) in order to measure airway resistance. The animals were ventilated (quasi-sinusoidal ventilation pattern) at 60 breaths/min at a tidal volume of 5 mL/kg. A positive end expiratory pressure of 2-3 cm H2O was applied. Respiratory resistance was measured using the Flexivent “snapshot” facility (1 second duration, 1 Hz frequency). Once a stable baseline resistance value had been obtained the animals were given methacholine in ascending doses (0.5, 1, 2, 3 and 5 μg/kg, i.v) at approximately 4-minute intervals via the jugular catheter. After each administration of bronchoconstrictor the peak resistance value was recorded. Guinea pigs were euthanised with approximately 1.0 mL pentobarbitone sodium (Euthatal) intravenously after the completion of the lung function measurements.
Percentage bronchoprotection produced by a compound was calculated at each dose of brochoconstrictor as follows:
Where % change Rveh is the mean of the maximum percentage change in airway resistance in the vehicle treated group. The results reported were measured after 5 μg/kg methacholine and were expressed as percentage bronchoprotection (mean±s.e.mean).
Guinea pigs were dosed with vehicle, 3 and 27 μg/kg compound (BA1), 0.2 μg/kg compound (MA2) (Crystalline Form A) or a combination of 3 μg/kg Compound (BA1) and 0.2 μg/kg Compound (MA2) via the intratracheal route. Administration of increasing intravenous doses of methacholine (0.5, 1, 2, 3 and 5 μg/kg) evoked dose-related bronchoconstriction in the vehicle treated animals ranging from 13±2.6% at 0.5 μg/kg to 2530±280% at 5 μg/kg two hours after vehicle administration (n=9).
[…] Administration of increasing intravenous doses of methacholine (0.5, 1, 2, 3 and 5 μg/kg) evoked dose-related bronchoconstriction in the vehicle treated animals ranging from 14±2.6% at 0.5 μg/kg to 2240±269% at 5 μg/kg two hours after vehicle administration (n=10).

Where [5] appears, read: MA2 0.2 μg/kg intratracheal, 2 hours prior to methacholine.
Setting [6] is: MA11 at 0.2 μg/kg intratracheal.

One may read the inhibition as the drop in the measured response relative to a control, in per cent. As for `COc1ccc(CC(C)NCC(O)c2ccc(O)c(NC=O)c2)cc1` (centres unmarked) [Formoterol, N-[2-hydroxy-5-[(1)-1-hydroxy-2-[[(1)-2-(4-methoxyphenyl)-1-methylethyl]amino]ethyl]phenyl]-formamide, reference compound], the inhibition at 0.001 µM in series [1] (10 min) was 21%; in series [1] (20 min), 37%; in series [1] (0.5 h), 41%; in series [1] (40 min) it was 42%; in series [1] (50 min), 44%.
By pKi is commonly meant the Ki on a negative log10 scale, so that one unit is a factor of ten. The low end stands for a large Ki, the high end for a small Ki. In series [2], `C[N+](C)(CCCOc1ccccc1)Cc1cnc([C@@](O)(c2ccccc2)C2CCCCC2)o1` [MA1, [2-((S)-Cyclohexyl-hydroxy-phenyl-methyl)-oxazol-5-ylmethyl]-dimethyl-(3-phenoxy-propyl)-ammonium bromide] had a pKi of 8.03.
The compound `C[N+](C)(CCCOc1ccccc1)Cc1cnc([C@](O)(c2ccccc2)C2CCCCC2)o1.[Br-]` [MA2 Crystalline Form A, [2-((R)-Cyclohexyl-hydroxy-phenyl-methyl)-oxazol-5-ylmethyl]-dimethyl-(3-phenoxy-propyl)-ammonium bromide] registered a GVS weight increase in series [3] of 0.8 % w/w.
Regarding `C[N+](C)(CCCOc1ccccc1)Cc1cnc([C@](O)(c2ccccc2)C2CCCCC2)o1.[Br-]` [MA2, [2-((R)-Cyclohexyl-hydroxy-phenyl-methyl)-oxazol-5-ylmethyl]-dimethyl-(3-phenoxy-propyl)-ammonium bromide], the increase in resistance in series [4] (setting [5]) came to 2210±268%. Further, in series [4] (setting [5]), the “inhibition of methacholine-induced bronchoconstriction” value is 13%. The “% inhibition of 1 μM Methacholine induced tone” value in series [1] (10 min) was determined as 23%; in series [1] (20 min), 62%; in series [1] (30 min) it was 94%; in series [1] (40 min), 104%; in series [1] (50 min), 106%. Also, the negative logarithm of the Ki (pKi) in series [2] is 9.70.
In series [2], `C[N+](C)(CCOCCc1ccccc1)Cc1cnc([C@](O)(c2ccccc2)C2CCCCC2)o1` [MA3, [2-((R)-Cyclohexyl-hydroxy-phenyl-methyl)-oxazol-5-ylmethyl]-dimethyl-(2-phenethyloxy-ethyl)-ammonium bromide] had a negative-log Ki (pKi) of 9.22.
`C[N+](C)(CCCOc1ccc(Cl)c(Cl)c1)Cc1cnc([C@](O)(c2ccccc2)C2CCCCC2)o1` [MA4, [2-((R)-Cyclohexyl-hydroxy-phenyl-methyl)-oxazol-5-ylmethyl]-[3-(3,4-dichloro-phenoxy)-propyl]-dimethyl-ammonium bromide] gave a pKi in series [2] of 9.05.
In series [2], `C[N+](C)(CCOCc1ccc(Cl)c(Cl)c1)Cc1cnc([C@](O)(c2ccccc2)C2CCCCC2)o1` [MA5, [2-((R)-Cyclohexyl-hydroxy-phenyl-methyl)-oxazol-5-ylmethyl]-[2-(3,4-dichloro-benzyloxy)-ethyl]-dimethyl-ammonium bromide] gave a negative-log Ki (pKi) of 8.68.
Still for that read-out and setting: with `C[N+](C)(CCOCc1ccc(Cl)cc1)Cc1cnc([C@](O)(c2ccccc2)C2CCCCC2)o1` [MA6, [2-(4-chloro-benzyloxy)-ethyl]-[2-((R)-cyclohexyl-hydroxy-phenyl-methyl)-oxazol-5-ylmethyl]-dimethyl-ammonium bromide] the figure was 9.22.
Compound `C[N+](C)(CCCOc1ccccc1)Cc1cnc([C@](O)(c2ccccc2)C2CCCCC2)o1` [MA7 Form 1, [2-((R)-Cyclohexyl-hydroxy-phenyl-methyl)-oxazol-5-ylmethyl]-dimethyl-(3-phenoxy-propyl)-ammonium hemi-naphthalene-1,5-disulfonate] registered a GVS weight increase in series [3] of 3.1 % w/w.
With `C[N+](C)(CCCOc1ccccc1)Cc1cnc([C@](O)(c2ccccc2)C2CCCCC2)o1` [MA7 Form 2, [2-((R)-Cyclohexyl-hydroxy-phenyl-methyl)-oxazol-5-ylmethyl]-dimethyl-(3-phenoxy-propyl)-ammonium hemi-naphthalene-1,5-disulfonate], the GVS weight increase in series [3] worked out at 0.7 % w/w.
On the same count and under the same terms, with `C[N+](C)(CCCOc1ccccc1)Cc1cnc([C@](O)(c2ccccc2)C2CCCCC2)o1` [MA7 Form 3, [2-((R)-Cyclohexyl-hydroxy-phenyl-methyl)-oxazol-5-ylmethyl]-dimethyl-(3-phenoxy-propyl)-ammonium hemi-naphthalene-1,5-disulfonate] the figure was 3.0 % w/w.
Take `C[N+](C)(CCOCc1ccc(Cl)cc1)Cc1cnc([C@](O)(c2ccccc2)C2CCCCC2)o1` [MA11, [2-(4-chloro-benzyloxy)-ethyl]-[2-((R)-cyclohexyl-hydroxy-phenyl-methyl)-oxazol-5-ylmethyl]-dimethyl-ammonium hemi-naphthalene-1,5-disulfonate]: in series [4] (setting [6]), the increase in resistance is 1880±272%. For the same compound, the “inhibition of methacholine-induced bronchoconstriction” value in series [4] (setting [6]) is on record as 16%. The “% inhibition of 1 μM Methacholine induced tone” value worked out at 11% in series [1] (10 min); 29% in series [1] (20 min); 49% in series [1] (30 min); 67% in series [1] (40 min); 84% in series [1] (50 min).
